Experimental data published in PubChem BioAssay (NCI).
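1) Cells in 96-well plates. 2) Compound, 48 h, 5 concentrations. 3) Linear interpolation between surrounding doses. 4) Unreached endpoint = highest concentration. At the GI50, growth is halved. TGI: concentration producing complete growth inhibition.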

Legend:
Experiment in all cases: growth of human tumour cells (NCI), 48 h
UACC-62 melanoma = tested on: UACC-62 melanoma
MDA-MB-231 breast = tested on: MDA-MB-231 breast
OVCAR-8 ovarian = tested on: OVCAR-8 ovarian
COLO 205 colon = tested on: COLO 205 colon
UACC-257 melanoma = tested on: UACC-257 melanoma
786-0 renal = tested on: 786-0 renal
HCT-15 colon = tested on: HCT-15 colon
MOLT-4 leukemia = tested on: MOLT-4 leukemia
NCI-H522 lung = tested on: NCI-H522 lung
HL-60(TB) leukemia = tested on: HL-60(TB) leukemia

SMILES	TGI (UACC-62 melanoma) [µM]	TGI (MDA-MB-231 breast) [µM]	TGI (OVCAR-8 ovarian) [µM]	TGI (COLO 205 colon) [µM]	TGI (UACC-257 melanoma) [µM]	TGI (786-0 renal) [µM]	TGI (HCT-15 colon) [µM]	TGI (MOLT-4 leukemia) [µM]	TGI (NCI-H522 lung) [µM]	TGI (HL-60(TB) leukemia) [µM]	GI50 (UACC-62 melanoma) [µM]	GI50 (MDA-MB-231 breast) [µM]	GI50 (OVCAR-8 ovarian) [µM]	GI50 (UACC-257 melanoma) [µM]	GI50 (HCT-15 colon) [µM]	GI50 (NCI-H522 lung) [µM]
C=CC[C@@H]1C=C[C@@H](C(=O)OC)n2c(=O)n(-c3ccccc3)c(=O)n21	> 100	> 100	> 100	> 100	> 100	> 100	> 100	> 100	> 100	–	–	–	–	–	–	–
CN1CCN(/C(N)=C(\C#N)C(=O)Nc2ccccc2)CC1	> 100	–	> 100	> 100	> 100	> 100	> 100	> 100	–	–	–	–	–	–	–	–
COc1ccc(/C(Cl)=C(\C=O)c2ccccc2)cc1OC	> 100	–	> 100	22.4	> 100	–	> 100	> 100	30.8	76.9	–	–	–	–	–	–
Cc1cc2c(c(C(=O)NCCC(=O)N[C@@H](C)C(=O)OCc3ccccc3)c1)Oc1c(cc(C)cc1C(=O)NCCC(=O)N[C@@H](C)C(=O)OCc1ccccc1)S2	> 100	> 100	> 100	> 100	> 100	> 100	> 100	> 100	–	–	–	–	–	–	–	–
COc1ccc2c(c1)CC1(O)COc3cc(OC)ccc3C1O2 (stereo unspecified)	> 100	> 100	> 100	> 100	> 100	> 100	> 100	> 100	> 100	–	–	–	–	–	–	–
c1ccc(CCN2CCN=C2Cc2ccccc2)cc1	> 100	> 100	> 100	> 100	> 100	> 100	> 100	–	> 100	> 100	–	–	–	–	–	–
C=CC[N+](CCO)(CCO)CCCCCCCCCCCCCCCCCC	20.2	–	59.5	11	17.2	–	41.4	3.85	13.5	2.51	–	–	–	–	–	–
CCOC(=O)c1cn(CC)c2cc3c(cc2c1=O)CCS3(=O)=O	> 100	> 100	> 100	–	–	> 100	> 100	> 100	–	> 100	–	–	–	–	–	–
Cn1cc(-c2nc(-c3c[nH]c4ccncc34)cs2)c2cc(F)ccc21	3.18	3.1	4.79	–	3.56	–	2.71	–	3.23	–	1.71	1.55	2.11	1.97	1.33	1.67
O=C(Cc1ccccc1)N=Nc1c(O)[nH]c2ccccc12	> 100	> 100	> 100	> 100	> 100	> 100	> 100	> 100	> 100	–	–	–	–	–	–	–
O=c1oc2c/c(=C\c3ccccc3)c(=O)c3cccc1c3-2	59.9	69.2	43.1	> 100	> 100	53.9	> 100	–	45.1	71.1	–	–	–	–	–	–
CCCCCCCC(=O)OCC(C[As](=O)(O)O)OC(=O)CCCCCCC (stereo unspecified)	27	–	30.3	27.6	28.1	30.9	28.5	51.9	26.6	38.9	–	–	–	–	–	–
C[C@H](N)C(=O)N[C@@H]1[C@H]2C(=C(O)C[C@@H](O)[C@@H]2O)C(=O)O[C@@H]1C	> 100	–	> 100	> 100	> 100	–	> 100	> 100	> 100	> 100	–	–	–	–	–	–
Cc1c(O)c(=O)ccn1CCc1c[nH]c2ccccc12	–	6.47	73.6	73.9	15.5	9.06	> 100	> 100	–	53.3	–	–	–	–	–	–
CC(C)=CCCC1(Sc2ccccc2)C(=O)OCC1C=C(C)C (stereo unspecified)	–	> 100	> 100	50	83	73.7	> 100	20.4	47.4	–	–	–	–	–	–	–
CCCCNC(=S)c1ccc(OC(=O)Nc2ccc(Cl)cc2)cc1	93.6	–	> 100	57.5	> 100	> 100	> 100	> 100	> 100	> 100	–	–	–	–	–	–
COC(=O)c1c(O)ccc2c1c1c(n2Cc2ccccc2OC)C(=O)c2ccccc2C1	> 100	> 100	> 100	30	> 100	> 100	> 100	> 100	–	> 100	–	–	–	–	–	–
Cc1cc(C)c2c(=N)c3ccccc3n(CCCCCCn3c4ccccc4c(=N)c4c(C)cc(C)nc43)c2n1	3.26	1.09	3.14	–	3.06	0.816	0.343	–	2.31	–	–	–	–	–	–	–
CC1C2CC(CC2N)C1(C)C (stereo unspecified)	> 100	> 100	> 100	> 100	> 100	> 100	–	> 100	> 100	> 100	–	–	–	–	–	–
CCOC(=O)C1=CC(C)(C(=O)OCC)Nc2c(nc(SC)n(C)c2=O)N1 (stereo unspecified)	–	> 10	> 10	> 10	> 10	> 10	> 10	> 10	> 10	–	–	–	–	–	–	–
COc1ccc(/C=N\NC(=O)Nc2cccc3ccccc23)cc1	–	44.4	–	> 100	> 100	46.6	> 100	–	> 100	–	–	–	–	–	–	–
COc1ccc(/C=N/n2cnc3c(c2=O)S/C(=C2/SC(=S)N(c4ccc(C)cc4)C2=O)N3c2ccccc2)cc1	51.9	–	> 100	> 100	–	–	> 100	> 10	> 100	> 100	–	–	–	–	–	–
N/C(=N\N=C\c1cc2c(cc1Cl)OCO2)NO	> 84.1	–	> 100	> 100	> 100	–	> 100	> 100	> 100	41.7	–	–	–	–	–	–
